Reference: publication PMC5085761 (International Journal of Molecular Sciences, 2016)

Experiments:
[1] = biological target: T1, OAT1 (Homo sapiens, UniProt Q4U2R8); assay: Inhibition of tracer uptake in OAT1-expressing cells; format: in vitro ADME; conditions: OAT1, tracer [14C]PAH 1 µM
T1 construct: host or cells: Flp-in-293
T1 sequence (Q4U2R8 1-563): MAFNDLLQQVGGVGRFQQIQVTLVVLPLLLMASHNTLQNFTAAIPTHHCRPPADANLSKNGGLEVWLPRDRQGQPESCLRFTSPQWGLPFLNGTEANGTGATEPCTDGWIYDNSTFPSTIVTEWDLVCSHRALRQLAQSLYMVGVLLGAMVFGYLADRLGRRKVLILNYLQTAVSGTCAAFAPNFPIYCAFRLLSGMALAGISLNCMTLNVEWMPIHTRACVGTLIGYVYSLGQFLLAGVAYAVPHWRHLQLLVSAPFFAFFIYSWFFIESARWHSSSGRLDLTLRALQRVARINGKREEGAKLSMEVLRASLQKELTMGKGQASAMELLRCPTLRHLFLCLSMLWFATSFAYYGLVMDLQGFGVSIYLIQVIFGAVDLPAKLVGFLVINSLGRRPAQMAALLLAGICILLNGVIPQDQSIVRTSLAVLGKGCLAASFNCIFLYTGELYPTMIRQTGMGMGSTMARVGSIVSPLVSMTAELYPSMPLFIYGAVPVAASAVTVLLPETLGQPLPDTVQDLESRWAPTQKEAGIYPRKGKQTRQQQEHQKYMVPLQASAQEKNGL
Description: For the SLC transporter experiments, Mock Flp-in-293 cells (Flp/mock), OAT1-expressing Flp-in-293 cells (Flp/OAT1), mock HEK293 cells (HEK/mock), and OATP1B3-expressing HEK293 cells (HEK/OATP1B3) were obtained from Kanazawa University (Ishikawa, Japan). Briefly, Flp-in-293 and HEK293 cells were transfected with the appropriate plasmid DNA and selected using antibiotics (hygromycin or G-418). All cell lines were cultured in DMEM (Life Technologies Japan) supplemented with 10% (v/v) fetal bovine serum (American Type Culture Collection) and antibiotics (100 U/mL penicillin and 100 μg/mL streptomycin (Life Technologies Japan) for mock cells, 0.2 mg/mL hygromycin for Flp/OAT1 cells, and 1.2 mg/mL G-418 (Roche Diagnostics K.K., Tokyo, Japan) for HEK/OATP1B3 cells) at 37 °C under an atmosphere containing 5% CO2. […]
The experiments were performed as described previously, with minor modifications. […] The cells were lysed in 0.3 mL of 0.1N NaOH at room temperature, after which the radioactivity of each aliquot was measured as described above. The protein concentration of the cell lysate was determined with a VersaMax microplate reader (Molecular Devices Japan K.K., Osaka, Japan) or SpectraMax i3x (Molecular Devices Japan K.K.; only for OATP1B1) using a BCA Protein Assay Kit (Thermo Fisher Scientific, Kanagawa, Japan). Tracer uptake was expressed as pmol/mg protein. […]

[2] = biological target: T2, human BCRP (Homo sapiens, UniProt Q9UNQ0); assay: [14C]fluciclovine uptake by BCRP-expressing inside-out vesicles; format: in vitro ADME
T2 construct: purchased GenoMembrane Co., Ltd. (Kanagawa, Japan); host or cells: Sf9
T2 sequence (Q9UNQ0 1-655): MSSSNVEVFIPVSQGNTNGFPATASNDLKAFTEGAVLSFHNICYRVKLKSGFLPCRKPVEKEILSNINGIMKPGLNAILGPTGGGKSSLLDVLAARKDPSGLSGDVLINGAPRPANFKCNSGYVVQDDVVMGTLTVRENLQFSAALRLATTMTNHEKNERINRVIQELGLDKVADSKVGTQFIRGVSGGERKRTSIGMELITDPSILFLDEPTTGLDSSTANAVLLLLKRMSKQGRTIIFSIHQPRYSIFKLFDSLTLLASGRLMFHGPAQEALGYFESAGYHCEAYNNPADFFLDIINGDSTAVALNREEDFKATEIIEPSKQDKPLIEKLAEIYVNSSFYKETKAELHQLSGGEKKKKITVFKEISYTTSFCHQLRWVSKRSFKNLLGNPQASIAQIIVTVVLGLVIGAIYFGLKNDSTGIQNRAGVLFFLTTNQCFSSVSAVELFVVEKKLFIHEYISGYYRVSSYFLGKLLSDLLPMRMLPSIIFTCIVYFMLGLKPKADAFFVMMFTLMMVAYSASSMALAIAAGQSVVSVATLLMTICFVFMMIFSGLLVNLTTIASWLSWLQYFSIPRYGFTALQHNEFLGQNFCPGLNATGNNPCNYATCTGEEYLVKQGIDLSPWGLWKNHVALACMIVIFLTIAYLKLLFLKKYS
Description: For ABC transporters, experimental kits containing Sf9-derived vesicles with high expression levels of human P-gp, MRP4, BCRP, and each ABC transporter (including buffer, ATP/AMP solution, and glutathione) were purchased from GenoMembrane Co., Ltd. (Kanagawa, Japan).
Vesicular transport assays were carried out according to the manufacturer’s protocol. […] The reaction was started by suspending 50 μg of vesicles (10 μL) in 40 μL of the reaction buffer. After incubation for an appropriate period of time, the reaction was stopped by the addition of ice-cold stop buffer (40 mM MOPS-Tris and 70 mM KCl; pH 7.0), after which the solution was filtered through a 0.45 μm HA filter (Millipore Corp., Billerica, MA, USA) using suction, and was washed twice in 5 mL of ice-cold stop buffer. The radioactivity of the filter was measured with a Tri-Carb 2910TR liquid scintillation counter (PerkinElmer) using Ultima Gold (PerkinElmer). The amount of tracer uptake was normalized to the membrane protein amount described in the product information sheets.

## N[C@]1(C(=O)O)C[C@@H](F)C1 [fluciclovine]
[1]
  IC50: 3.98 ± 1.77 mM

## N[14C]1(C(=O)O)CC(F)C1 (stereo not drawn) [[^14C]fluciclovine, trans-1-amino-3-fluoro[1-^14C]cyclobutanecarboxylic acid]
[2]
  uptake compared with control vesicles: reduced in comparison to that of the control vesicles, albeit not significantly
